# Assay results from patent US8357673B2, “4-arylazo-3,5-diamino-pyrazole compounds and use thereof” (Univerzita Palackeho V Olomouci, priority 2004, dated 2013).
# Like-named read-outs stand apart in the source and are kept apart here.
# Key:
# CDK1/cyclin B = target: T1, CDK1/cyclin B (Homo sapiens, UniProt P06493); test: CDK1/cyclin B kinase inhibition assay (histone H1, [γ-33P]ATP); format: biochemical; conditions: averaged from triplicates; 15 μM ATP
# T1 construct: made in house; host or cells: Sf9 insect cells (baculovirus co-infection)
# T1 sequence (P06493 whole entry): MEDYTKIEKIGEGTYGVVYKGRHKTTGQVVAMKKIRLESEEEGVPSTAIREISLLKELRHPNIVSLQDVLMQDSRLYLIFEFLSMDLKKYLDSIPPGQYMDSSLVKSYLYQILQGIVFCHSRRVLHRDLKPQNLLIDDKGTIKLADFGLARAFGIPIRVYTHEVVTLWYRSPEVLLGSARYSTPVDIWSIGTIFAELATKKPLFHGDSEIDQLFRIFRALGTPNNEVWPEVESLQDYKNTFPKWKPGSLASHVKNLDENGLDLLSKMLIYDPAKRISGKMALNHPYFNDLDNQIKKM
# T1 sequence (P14635 whole entry partner): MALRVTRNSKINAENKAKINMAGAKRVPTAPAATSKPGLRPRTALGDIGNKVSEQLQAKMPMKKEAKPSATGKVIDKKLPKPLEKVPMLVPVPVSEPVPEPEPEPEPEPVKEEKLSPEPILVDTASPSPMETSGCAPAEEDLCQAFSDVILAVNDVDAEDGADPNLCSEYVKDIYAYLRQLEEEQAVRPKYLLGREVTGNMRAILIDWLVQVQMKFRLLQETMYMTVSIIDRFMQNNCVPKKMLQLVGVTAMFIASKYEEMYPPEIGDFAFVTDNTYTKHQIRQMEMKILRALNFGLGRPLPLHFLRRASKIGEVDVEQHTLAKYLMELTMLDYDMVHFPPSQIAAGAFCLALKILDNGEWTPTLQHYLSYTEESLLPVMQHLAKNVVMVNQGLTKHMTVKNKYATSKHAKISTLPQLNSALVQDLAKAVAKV
# Experimental: (§1) CDK1/cyclin B and CDK2/cyclin E kinases were produced in Sf9 insect cells coinfected with appropriate baculoviral constructs. The cells were harvested 70 h post infection, incubated in lysis buffer (50 mM Tris pH 7.4, 150 mM NaCl, 5 mM EDTA, 20 mM NaF, 1% Tween 20, 1 mM DTT, 0.1 mM PMSF, 0.5 μg/ml leupeptine, 1 μg/ml aprotonine) for 30 min on ice and the soluble fraction was recovered by centrifugation at 20.000 g for 10 min. The enzymes were purified on NiNTA column (Qiagen), stored at 4° C. and used within a week. To carry out the enzyme inhibition assays under linear conditions, the final point test system for kinase activity measurement was used. Kinase was added to reaction mixture in such a way as to obtain linear activity with respect to the concentration of enzyme and with respect to time. For determination of kinase inhibition the reaction mixture contained 1 mg/ml histone H1 (type III-S, Sigma) in the presence of 15 μM ATP, 0.05 μCi [γ-^33P]ATP and the tested compound in a final volume of 10 μl; all in reaction buffer (50 mM HEPES, 10 mM MgCl2, 5 mM EGTA, 10 mM 2-glycerolphosphate, 1 mM NaF, 1 mM DTT, pH 7.4). After 20 min incubation, the reactions were stopped by the addition of 5 μl of a 3% H3PO4, aliquots were spotted on P-81 phosphocellulose (Whatman, USA) that was subsequently washed 3× with 5% H3PO4 and finally air dried. The measurements of kinase inhibition employed digital image analyzer BAS-1800 (Fujifilm, Japan). Kinase activity was usually expressed as a percentage of maximum activity. […] For the purpose of kinetic analysis, the activity was expressed as arbitrary units (AU) of digital image analyzer signal.
# CDK2/cyclin E = target: T2, CDK2/cyclin E (Homo sapiens, UniProt P24941); test: CDK2/cyclin E kinase inhibition assay (histone H1, [γ-33P]ATP); format: biochemical; conditions: for IC50: averaged from triplicates, 15 μM ATP
# T2 construct: made in house; host or cells: Sf9 insect cells (baculovirus co-infection)
# Experimental: as §1
# [1] = test system: G 361 (human malignant melanoma); test: In vitro cytotoxicity, Calcein AM, 72 h; format: cell-based; conditions: for IC50: read-out: IC50 (μM) G361; for % of viable cells G361: at 100 μM
# Experimental: (§2) Tested drugs were added to the cell cultures in six different concentration and kept at 37° C. and 5% CO2 for three days.
# (§3) The cells, cultured in DMEM (supplemented with 10% fetal calf serum, 4 mM glutamine, 100 IU/ml penicillin, 100 μg/ml streptomycin) in a humidified CO2 incubator at 37° C., were redistributed into 96-well microtitre plates (10.000 cells per well). After 12 h preincubation, tested compounds in six-fold dilutions were added. Treatment of cells with the tested compounds (in the 1-100 μM range) lasted for 72 h.
# [2] = test system: HOS (human osteogenic sarcoma); test: In vitro cytotoxicity, Calcein AM, 72 h; format: cell-based; conditions: for IC50: read-out: IC50 (μM) HOS; for % of viable cells HOS: at 100 μM
# Experimental: as §2, §3
# [3] = test system: K562 (human chronic myeloblastic leukemia); test: In vitro cytotoxicity, Calcein AM, 72 h; format: cell-based; conditions: for IC50: read-out: IC50 (μM) K562; for % of viable cells K562: at 100 μM
# Experimental: as §2, §3
# [4] = test system: MCF7 (human breast adenocarcinoma); test: In vitro cytotoxicity, Calcein AM, 72 h; format: cell-based; conditions: for IC50: read-out: IC50 (μM) MCF7; for % of viable cells MCF7: at 100 μM
# Experimental: as §2, §3
# [5] = In vitro cytotoxicity, Calcein AM, 72 h; format: cell-based, human; conditions: human, at 100 μM
# Experimental: as §2, §3
# [6] = G 361 cells (human malignant melanoma), 72 h, read-out: % of viable cells G361
# [7] = HOS cells (human osteogenic sarcoma), read-out: % of viable cells HOS
# [8] = K562 cells (human chronic myeloblastic leukemia), 72 h, read-out: % of viable cells K562
# [9] = MCF7 cells (human breast adenocarcinoma), 72 h, read-out: % of viable cells MCF7
# [10] = Homo sapiens, G-361, 72 h, Calcein AM, triplicates
# [11] = Homo sapiens, Calcein AM, triplicates
# [12] = Homo sapiens, K562, 72 h, Calcein AM, triplicates
# [13] = Homo sapiens, MCF7, 72 h, Calcein AM, triplicates
smiles,measurement,setting,value
"Nc1n[nH]c(N)c1N=Nc1ccccc1 [Compound 1b, 3,5-diamino-4-(phenyl)azo-pyrazole]",IC50,CDK1/cyclin B,25 µM
same,IC50,CDK2/cyclin E,22 µM
same,IC50,"[1]; 72 h, Calcein AM, triplicates",> 100 µM
same,% of viable cells G361,[1]; 72 h,(75 ± 2%)
same,IC50,"[2]; Calcein AM, triplicates",> 100 µM
same,% of viable cells HOS,[2],(83 ± 8%)
same,IC50,"[3]; 72 h, Calcein AM, triplicates",> 100 µM
same,% of viable cells K562,[3]; 72 h,(90 ± 14%)
same,IC50,"[4]; 72 h, Calcein AM, triplicates",> 100 µM
same,% of viable cells MCF7,[4]; 72 h,(74 ± 5%)
"Nc1n[nH]c(N)c1/N=N/c1ccc(F)cc1 [Compound 3b, 3,5-diamino-4-(4-fluoro)phenylazo-pyrazole]",IC50,CDK1/cyclin B,25 µM
same,IC50,CDK2/cyclin E,24 µM
"Nc1n[nH]c(N)c1/N=N/c1ccc(Cl)cc1 [Compound 4b, 3,5-diamino-4-(4-chloro)phenylazo-pyrazole]",IC50,CDK1/cyclin B,60 µM
same,IC50,CDK2/cyclin E,45 µM
"Nc1n[nH]c(N)c1/N=N/c1ccc(Br)cc1 [Compound 5b, 3,5-diamino-4-(4-bromo)phenylazo-pyrazole]",IC50,CDK1/cyclin B,> 100 µM
"Nc1n[nH]c(N)c1/N=N/c1ccc(I)cc1 [Compound 6b, 3,5-diamino-4-(4-iodo)phenylazo-pyrazole]",IC50,CDK1/cyclin B,> 100 µM
"Nc1n[nH]c(N)c1N=Nc1ccccc1[N+](=O)[O-] [Compound 7b, 3,5-diamino-4-(2-nitro)phenylazo-pyrazole]",IC50,CDK1/cyclin B,2.6 µM
same,IC50,CDK2/cyclin E,6.1 µM
same,"viability at 72 h, 100 µM",[5]; [6],58%
same,"viability at 72 h, 100 µM",[5]; [7],57%
same,"viability at 72 h, 100 µM",[5]; [8],48%
same,"viability at 72 h, 100 µM",[5]; [9],62%
same,IC50,[1]; [10],> 100 µM
same,IC50,[2]; [11],> 100 µM
same,IC50,[3]; [12],100 ± 10 µM
same,IC50,[4]; [13],> 100 µM
"Nc1n[nH]c(N)c1/N=N/c1cccc([N+](=O)[O-])c1 [Compound 8b, 3,5-diamino-4-(3-nitro)phenylazo-pyrazole]",IC50,CDK1/cyclin B,4.8 µM
same,"viability at 72 h, 100 µM",[5]; [6],69%
same,"viability at 72 h, 100 µM",[5]; [7],95%
same,"viability at 72 h, 100 µM",[5]; [8],28%
same,"viability at 72 h, 100 µM",[5]; [9],44%
same,IC50,[1]; [10],> 100 µM
same,IC50,[2]; [11],> 100 µM
same,IC50,[3]; [12],79 ± 6 µM
same,IC50,[4]; [13],65 ± 7 µM
"Nc1n[nH]c(N)c1/N=N/c1ccc([N+](=O)[O-])cc1 [Compound 9b, 3,5-diamino-4-(4-nitro)phenylazo-pyrazole]",IC50,CDK1/cyclin B,16 µM
same,"viability at 72 h, 100 µM",[5]; [6],61%
same,"viability at 72 h, 100 µM",[5]; [7],80%
same,"viability at 72 h, 100 µM",[5]; [8],25%
same,"viability at 72 h, 100 µM",[5]; [9],60%
same,IC50,"[1]; Homo sapiens, G-361, 72 h",> 100 µM
same,IC50,[2]; Homo sapiens,> 100 µM
same,IC50,"[3]; Homo sapiens, K562, 72 h",71 ± 6 µM
same,IC50,"[4]; Homo sapiens, MCF7, 72 h",> 100 µM
"Nc1n[nH]c(N)c1/N=N/c1ccccc1O [Compound 10b, 3,5-diamino-4-(2-hydroxy)phenylazo-pyrazole]",IC50,CDK1/cyclin B,3.6 µM
same,"viability at 72 h, 100 µM",[5]; [6],74%
same,"viability at 72 h, 100 µM",[5]; [7],84%
same,"viability at 72 h, 100 µM",[5]; [8],72%
same,"viability at 72 h, 100 µM",[5]; [9],72%
same,IC50,[1]; [10],> 100 µM
same,IC50,[2]; [11],> 100 µM
same,IC50,[3]; [12],> 100 µM
same,IC50,[4]; [13],> 100 µM
"Nc1n[nH]c(N)c1/N=N/c1cccc(O)c1 [Compound 11b, 3,5-diamino-4-(3-hydroxy)phenylazo-pyrazole]",IC50,CDK1/cyclin B,6 µM
same,"viability at 72 h, 100 µM",[5]; [6],70%
same,"viability at 72 h, 100 µM",[5]; [7],83%
same,"viability at 72 h, 100 µM",[5]; [8],53%
same,"viability at 72 h, 100 µM",[5]; [9],71%
same,IC50,[1]; [10],> 100 µM
same,IC50,[2]; [11],> 100 µM
same,IC50,[3]; [12],> 100 µM
same,IC50,[4]; [13],> 100 µM
"Nc1n[nH]c(N)c1N=Nc1ccccc1C(=O)O [Compound 13b, 3,5-diamino-4-(2-carboxy)phenylazo-pyrazole]",IC50,CDK1/cyclin B,70 µM
same,IC50,CDK2/cyclin E,88 µM
"Nc1n[nH]c(N)c1N=Nc1cccc(C(=O)O)c1 [Compound 14b, 3,5-diamino-4-(3-carboxy)phenylazo-pyrazole]",IC50,CDK1/cyclin B,34 µM
same,IC50,CDK2/cyclin E,27 µM
"CC(=O)NS(=O)(=O)c1ccc(N=Nc2c(N)n[nH]c2N)cc1 [Compound 18b, N-({4-[(3,5-diamino-pyrazol-4-yl)azo]phenyl}sulfonyl)-acetamide]",IC50,CDK1/cyclin B,> 100 µM
same,inhibition of the enzyme CDK2 (in words),CDK2/cyclin E,failed to inhibit the enzyme
same,IC50,CDK2/cyclin E,> 100 µM
"N=C(N)NS(=O)(=O)c1ccc(N=Nc2c(N)n[nH]c2N)cc1 [Compound 19b, N-[amino(imino)methyl]-4-[(3,5-diamino-pyrazol-4-yl)azo]-benzansulfonamide]",IC50,CDK1/cyclin B,> 100 µM
"Nc1n[nH]c(N)c1N=Nc1ccc(S(=O)(=O)Nc2nccs2)cc1 [Compound 20b, 4-[(3,5-diaminopyrazol-4-yl)azo]-N-(thiazol-2-yl)-benzensulfonamide]",IC50,CDK1/cyclin B,> 100 µM
same,IC50,CDK2/cyclin E,> 100 µM
"Cc1cc(C)nc(NS(=O)(=O)c2ccc(N=Nc3c(N)n[nH]c3N)cc2)n1 [Compound 21b, 4-[(3,5-diamino-pyrazol-4-yl)-azo]-N-(4,6-dimethylpyrimidin-2-yl)benzensulfonamide]",IC50,CDK1/cyclin B,> 100 µM
same,inhibition of the enzyme CDK2 (in words),CDK2/cyclin E,failed to inhibit the enzyme
same,IC50,CDK2/cyclin E,> 100 µM
"COc1cnc(NS(=O)(=O)c2ccc(N=Nc3c(N)n[nH]c3N)cc2)nc1 [Compound 22b, 4-[(3,5-diamino-pyrazol-4-yl)-azo]-N-(5-methoxypyrimidin-2-yl)-benzensulfonamide]",IC50,CDK1/cyclin B,> 100 µM
same,IC50,CDK2/cyclin E,> 100 µM
"COc1ccc(NS(=O)(=O)c2ccc(N=Nc3c(N)n[nH]c3N)cc2)nn1 [Compound 23b, 4-[(3,5-diamino-pyrazol-4-yl)-azo]-N-(6-methoxypyridazin-3-yl)-benzensulfonamide]",IC50,CDK1/cyclin B,> 100 µM
same,IC50,CDK2/cyclin E,> 100 µM
Nc1n[nH]c(N)c1/N=N/c1ccc(-c2nc3ccccc3[nH]c2=O)cc1 [Compound 24b],IC50,CDK1/cyclin B,> 100 µM
same,IC50,CDK2/cyclin E,> 100 µM
Nc1n[nH]c(N)c1/N=N/c1ccccc1-c1nc2ccccc2[nH]c1=O [Compound 25b],IC50,CDK1/cyclin B,> 100 µM
same,IC50,CDK2/cyclin E,> 100 µM
Nc1n[nH]c(N)c1N=Nc1ccccc1Cc1nc2ccccc2[nH]c1=O [Compound 26b],IC50,CDK2/cyclin E,95 µM
Cc1cc2nc(Cc3ccccc3N=Nc3c(N)n[nH]c3N)c(=O)[nH]c2cc1C [Compound 27b],IC50,CDK1/cyclin B,> 100 µM
same,IC50,CDK2/cyclin E,> 100 µM
"Nc1n[nH]c(N)c1N=Nc1cccc2ccccc12 [Compound 28b, 3,5-diamino-4-(naphth-1-yl)azo-pyrazole]",IC50,CDK1/cyclin B,5.5 µM
same,IC50,CDK2/cyclin E,10 µM
same,IC50,"[1]; 72 h, Calcein AM, triplicates",> 100 µM
same,% of viable cells G361,[1]; 72 h,(55 ± 14%)
same,IC50,"[2]; Calcein AM, triplicates",> 100 µM
same,% of viable cells HOS,[2],(79 ± 8%)
same,IC50,"[3]; 72 h, Calcein AM, triplicates",50 ± 3 µM
same,% of viable cells K562,[3]; 72 h,(7.7 ± 6%)
same,IC50,"[4]; 72 h, Calcein AM, triplicates",> 100 µM
same,% of viable cells MCF7,[4]; 72 h,(56 ± 1%)
"Nc1n[nH]c(N)c1N=Nc1ccc2ccccc2c1 [Compound 29b, 3,5-diamino-4-(naphth-2-yl)azo-pyrazole]",IC50,CDK1/cyclin B,16 µM
same,IC50,CDK2/cyclin E,15 µM
Cc1c(/N=N/c2c(N)n[nH]c2N)c(=O)n(-c2ccccc2)n1C [Compound 31b],IC50,CDK1/cyclin B,> 100 µM
same,IC50,CDK2/cyclin E,> 100 µM
Nc1n[nH]c(N)c1/N=N/c1ccc(C(=O)c2ccc(/N=N/c3c(N)n[nH]c3N)cc2)cc1 [Compound 32d],IC50,CDK1/cyclin B,> 100 µM
same,IC50,CDK2/cyclin E,> 100 µM
Nc1n[nH]c(N)c1/N=N/c1cccc(C(=O)c2cccc(/N=N/c3c(N)n[nH]c3N)c2)c1 [Compound 33d],IC50,CDK1/cyclin B,> 100 µM
same,IC50,CDK2/cyclin E,> 100 µM
Nc1n[nH]c(N)c1/N=N/c1ccc(S(=O)(=O)c2ccc(/N=N/c3c(N)n[nH]c3N)cc2)cc1 [Compound 34d],IC50,CDK1/cyclin B,> 100 µM
same,IC50,CDK2/cyclin E,> 100 µM
Nc1n[nH]c(N)c1/N=N/c1cccc(S(=O)(=O)c2cccc(/N=N/c3c(N)n[nH]c3N)c2)c1 [Compound 35d],IC50,CDK1/cyclin B,> 100 µM
same,IC50,CDK2/cyclin E,> 100 µM
